Measured values published in patent EP1137644B9, “BENZOFURAN DERIVATIVES, THEIR PREPARATION AND USE” (H. Lundbeck A/S, priority 1998, dated 2000).
Counter-ions that a name gives are not always drawn.

The molecules below were run on serotonin reuptake (assay: Inhibition of 3H-5-HT uptake into rat brain synaptosomes). Conditions: ^3H-5-HT accumulation into whole rat brain synaptosomes.
Format: biochemical
Protocol: Inhibition of ^3H-5-HT Uptake Into Rat Brain Synaptosomes
Using this method, the ability of drugs to inhibit the accumulation of ^3H-5-HT into whole rat brain synaptosomes is determined in vitro. The assay was performed as described by Hyttel, J., Psychopharmacology 1978, 60, 13.

First: CN(CCCCc1cccc2c1OCCO2)CCCC1(c2ccc(F)cc2)OCc2cc(C#N)ccc21 (single isomer, unassigned; (+)) [Compound 1a, (+)-1-[3-[[4-(1,4-Benzodioxan-5-yl)butyl]methylamino]propyl]-1-(4-fluorophenyl)-1,3-dihydroisobenzofuran-5-carbonitrile]
Second: CN(CCCc1cccc2c1OCCO2)CCCC1(c2ccc(F)cc2)OCc2cc(C#N)ccc21 (single isomer, unassigned; (+)) [Compound 1b, (+)-1-[3-[[3-(1,4-Benzodioxan-5-yl)propyl]methylamino]propyl]-1-(4-fluorophenyl)-1,3-dihydroisobenzofuran-5-carbonitrile oxalate]
The IC50 of the first is 4.6-fold higher: 60 nM for the first, 13 nM for the second. The second is the more potent here.

First: N#Cc1ccc2c(c1)COC2(CCCN1CCC(c2c[nH]c3cc(Cl)ccc23)CC1)c1ccc(F)cc1 (stereo not shown) [Compound 2o, 1-[3-[4-(6-chloro-1H-Indol-3-yl)piperidinyl]propyl]-1-(4-fluorophenyl)-1,3-dihydroisobenzofuran-5-carbonitrile]
Second: COc1ccccc1N1CCN(CCCC2(c3ccc(F)cc3)OCc3cc(C#N)ccc32)CC1 (stereo not shown) [Compound 2a, 1-(4-Fluorophenyl)-1-[3-[4-(2-methoxyphenyl)piperazinyl]propyl]-1,3-dihydroisobenzofuran-5-carbonitrile]
The IC50 of the first is 11-fold lower: 31 nM for the first, 340 nM for the second.

Compared with `CN(CCCC1(c2ccc(F)cc2)OCc2cc(C#N)ccc21)CCc1cccc2c1OCCO2` (stereo not shown) [Compound 1c, 1-[3-[[2-(1,4-Benzodioxan-5-yl)ethyl]methylamino]propyl]-1-(4-fluorophenyl)-1,3-dihydroisobenzofuran-5-carbonitrile oxalate], `CN(CCCC1(c2ccc(F)cc2)OCc2cc(C#N)ccc21)CCc1c[nH]c2c(F)cccc12` (stereo not shown) [Compound 12b, 1-[3-[[2-(7-Fluoro-1H-indol-3-yl)ethyl]methylamino]propyl]-1-(4-fluorophenyl)-1,3-dihydroisobenzofuran-5-carbonitrile] is 8.5-fold lower in IC50: 85 nM for the first, 10 nM for the second.

Each molecule was assayed on Human 5-HT1A Receptors (assay: Inhibition of 3H-5-CT binding to human 5-HT1A receptors). Conditions: at 100 nM; cloned human 5-HT1A receptors expressed in HeLa cells (HA7).
Protocol: The affinity of the compounds of the invention to 5-HT1A receptors was determined by measuring the inhibition of binding of a radioactive ligand at 5-HT1A receptors as described in the following test:
Inhibition of ^3H-5-CT Binding to Human 5-HT1A Receptors
By this method the inhibition by drugs of the binding of the 5-HT1A agonist ^3H-5-carboxamido tryptamine (^3H-5-CT) to cloned human 5-HT1A receptors stably expressed in transfected HeLa cells (HA7) (Fargin, A. et al, J. Biol. Chem., 1989, 264, 14848) is determined in vitro. The assay was performed as a modification of the method described by Harrington, M.A. et al, J. Pharmacol. Exp. Ther., 1994, 268, 1098. Human 5-HT1A receptors (40 µg of cell homogenate) were incubated for 15 minutes at 37 °C in 50 mM Tris buffer at pH 7.7 in the presence of ^3H-5-CT. Non-specific binding was determined by including 10 µM of metergoline. The reaction was terminated by rapid filtration through Unifilter GF/B filters on a Tomtec Cell Harvester. Filters were counted in a Packard Top Counter.

First: COc1ccccc1OCCCN(C)CCCC1(c2ccc(F)cc2)OCc2cc(C#N)ccc21 (stereo not shown) [Compound 4m, 1-(4-Fluorophenyl)-1-[3-[[3-(2-methoxyphenoxy)propyl]methylamino]propyl]-1,3-dihydroisobenzofuran-5-carbonitrile]
Second: C=CCN(CCCc1cccc(OC)c1)CCCC1(c2ccc(F)cc2)OCc2cc(C#N)ccc21 (stereo not shown) [Compound 4l, 1-(4-Fluorophenyl)-1-[3-[[3-(3-methoxyphenyl)propyl](prop-2-en-1-yl)amino]propyl]-1,3-dihydroisobenzofuran-5-carbonitrile]
The “Inhibition of ^3H- 5-CT binding % inhibition at 100 nM” value of the first is lower: 65% inh. at 100 nM for the first, 76% inh. at 100 nM for the second.

For `C#CCN(CCCc1c[nH]c2ccccc12)CCCC1(c2ccc(F)cc2)OCc2cc(C#N)ccc21` (stereo not shown) [Compound 4u, 1-[3-[[3-(1H-Indol-3-yl)propyl](prop-2-yn-1-yl)amino]propyl]-1-(4-fluorophenyl)-1,3-dihydroisobenzofuran-5-carbonitrile], the “Inhibition of ^3H- 5-CT binding % inhibition at 100 nM” value was 58% inh. at 100 nM.

Same assay, conditions: cloned human 5-HT1A receptors expressed in HeLa cells (HA7), 15 minutes at 37 °C, pH 7.7

Molecule `CN(CCCCc1cccc2c1OCCO2)CCCC1(c2ccc(F)cc2)OCc2cc(C#N)ccc21` (single isomer, unassigned; (+)) [Compound 1a, (+)-1-[3-[[4-(1,4-Benzodioxan-5-yl)butyl]methylamino]propyl]-1-(4-fluorophenyl)-1,3-dihydroisobenzofuran-5-carbonitrile] has an IC50 of 39 nM.
